Data as given in the NIST ThermoML archive (doi:10.1016/j.tca.2014.11.009).
± gives the expanded uncertainty stated by the source.

Experiment: xn = mol fraction of the nth substance listed
Conditions: 100 kPa, Liquid; for speed of sound: Frequency=3 MHz, Sing-around technique in a fixed-path interferometer; for mass density: Vibrating tube method

O=Cc1ccco1 [2-furaldehyde] + CCC(C)O
Conditions	mass density, 283.15 K [kg/m3]	mass density, 293.15 K [kg/m3]	mass density, 303.15 K [kg/m3]	mass density, 313.15 K [kg/m3]	speed of sound, 283.15 K [m/s]	speed of sound, 293.15 K [m/s]	speed of sound, 303.15 K [m/s]	speed of sound, 313.15 K [m/s]
x1 = 0.0501	831.27 ± 0.4	822.97 ± 0.39	814.4 ± 0.39	805.5 ± 0.39	1279.1 ± 1.6	1242.7 ± 1.6	1206.1 ± 1.6	1169.4 ± 1.6
x1 = 0.1001	847.35 ± 0.4	838.83 ± 0.4	830.06 ± 0.4	820.99 ± 0.39	1289.1 ± 1.6	1252.7 ± 1.6	1216.1 ± 1.6	1179.5 ± 1.6
x1 = 0.1507	863.92 ± 0.41	855.21 ± 0.4	846.24 ± 0.4	837.01 ± 0.4	1299.3 ± 1.6	1263.1 ± 1.6	1226.6 ± 1.6	1190 ± 1.6
x1 = 0.2001	880.27 ± 0.41	871.37 ± 0.41	862.24 ± 0.41	852.86 ± 0.4	1309.5 ± 1.6	1273.3 ± 1.6	1236.9 ± 1.6	1200.5 ± 1.6
x1 = 0.3001	913.96 ± 0.41	904.72 ± 0.41	895.3 ± 0.41	885.68 ± 0.41	1330.4 ± 1.6	1294.4 ± 1.6	1258.3 ± 1.6	1222.1 ± 1.6
x1 = 0.3501	931.13 ± 0.42	921.74 ± 0.42	912.18 ± 0.41	902.46 ± 0.41	1341.2 ± 1.6	1305.4 ± 1.6	1269.3 ± 1.6	1233.2 ± 1.6
x1 = 0.4001	948.49 ± 0.42	938.98 ± 0.42	929.33 ± 0.42	919.51 ± 0.42	1352 ± 1.6	1316.4 ± 1.6	1280.4 ± 1.6	1244.1 ± 1.6
x1 = 0.4501	966.01 ± 0.42	956.37 ± 0.42	946.59 ± 0.42	936.66 ± 0.42	1363.4 ± 1.6	1327.8 ± 1.6	1291.9 ± 1.6	1256 ± 1.6
x1 = 0.5	983.65 ± 0.43	973.9 ± 0.42	964.03 ± 0.42	954.03 ± 0.42	1375.1 ± 1.6	1339.4 ± 1.6	1303.5 ± 1.6	1267.6 ± 1.6
x1 = 0.55	1001.41 ± 0.43	991.58 ± 0.43	981.69 ± 0.43	971.7 ± 0.42	1387.3 ± 1.6	1351.4 ± 1.6	1315.5 ± 1.6	1279.6 ± 1.6
x1 = 0.6	1019.4 ± 0.44	1009.48 ± 0.43	999.51 ± 0.43	989.44 ± 0.43	1399.4 ± 1.6	1363.4 ± 1.6	1327.4 ± 1.6	1291.5 ± 1.6
x1 = 0.6501	1037.63 ± 0.45	1027.6 ± 0.45	1017.53 ± 0.44	1007.37 ± 0.44	1411.8 ± 1.6	1375.7 ± 1.6	1339.6 ± 1.6	1303.6 ± 1.6
x1 = 0.8001	1093.43 ± 0.48	1083.14 ± 0.48	1072.78 ± 0.47	1062.25 ± 0.46	1448.5 ± 1.6	1412 ± 1.6	1375.6 ± 1.6	1339.5 ± 1.6
x1 = 0.8999	1131.48 ± 0.51	1121 ± 0.5	1110.45 ± 0.5	1099.81 ± 0.49	1472.1 ± 1.6	1435.7 ± 1.6	1399.2 ± 1.6	1363.1 ± 1.6
x1 = 1	1169.93 ± 0.37	1159.33 ± 0.36	1148.69 ± 0.35	1138.01 ± 0.34	1495.4 ± 1.6	1458.8 ± 1.6	1422.5 ± 1.6	1386.5 ± 1.6

O=Cc1ccco1 [2-furaldehyde] + CCCCO
Conditions	mass density, 283.15 K [kg/m3]	mass density, 293.15 K [kg/m3]	mass density, 303.15 K [kg/m3]	mass density, 313.15 K [kg/m3]	speed of sound, 283.15 K [m/s]	speed of sound, 293.15 K [m/s]	speed of sound, 303.15 K [m/s]	speed of sound, 313.15 K [m/s]
x1 = 0.0501	833.74 ± 0.41	825.93 ± 0.4	818 ± 0.4	809.97 ± 0.4	1301.8 ± 1.6	1267.2 ± 1.6	1233 ± 1.6	1199.2 ± 1.6
x1 = 0.1	850.14 ± 0.41	842.12 ± 0.4	833.98 ± 0.4	825.71 ± 0.4	1310.6 ± 1.6	1275.9 ± 1.6	1241.6 ± 1.6	1207.7 ± 1.6
x1 = 0.15	866.88 ± 0.41	858.65 ± 0.41	850.29 ± 0.4	841.84 ± 0.4	1319.6 ± 1.6	1285 ± 1.6	1250.5 ± 1.6	1216.4 ± 1.6
x1 = 0.1999	883.58 ± 0.41	875.14 ± 0.41	866.67 ± 0.41	858.15 ± 0.41	1328.7 ± 1.6	1293.9 ± 1.6	1259.3 ± 1.6	1225.2 ± 1.6
x1 = 0.2499	900.71 ± 0.42	892.12 ± 0.41	883.46 ± 0.41	874.76 ± 0.41	1337.3 ± 1.6	1302.9 ± 1.6	1268.4 ± 1.6	1234.2 ± 1.6
x1 = 0.3	917.89 ± 0.42	909.1 ± 0.42	900.31 ± 0.42	891.55 ± 0.41	1346.9 ± 1.6	1312.1 ± 1.6	1277.6 ± 1.6	1243.3 ± 1.6
x1 = 0.4	953.02 ± 0.42	943.94 ± 0.42	934.84 ± 0.42	925.74 ± 0.41	1365.5 ± 1.6	1330.9 ± 1.6	1296.4 ± 1.6	1262.1 ± 1.6
x1 = 0.45	970.58 ± 0.43	961.33 ± 0.42	952.08 ± 0.42	942.85 ± 0.42	1375.2 ± 1.6	1340.7 ± 1.6	1306.1 ± 1.6	1271.7 ± 1.6
x1 = 0.5	988.52 ± 0.43	979.14 ± 0.43	969.78 ± 0.42	960.42 ± 0.42	1385.7 ± 1.6	1351 ± 1.6	1316.3 ± 1.6	1281.9 ± 1.6
x1 = 0.5473	1005.5 ± 0.43	995.94 ± 0.43	986.39 ± 0.43	976.86 ± 0.42	1395.8 ± 1.6	1361 ± 1.6	1326.2 ± 1.6	1291.7 ± 1.6
x1 = 0.6999	1060.86 ± 0.46	1050.92 ± 0.45	1041.03 ± 0.45	1031.18 ± 0.44	1429.8 ± 1.6	1394.6 ± 1.6	1359.3 ± 1.6	1324.3 ± 1.6
x1 = 0.8	1097.24 ± 0.48	1087.06 ± 0.47	1076.9 ± 0.46	1066.74 ± 0.46	1452.2 ± 1.6	1416.4 ± 1.6	1380.7 ± 1.6	1345.3 ± 1.6
x1 = 0.8497	1115.11 ± 0.49	1104.87 ± 0.48	1094.66 ± 0.47	1084.43 ± 0.47	1463.1 ± 1.6	1427.1 ± 1.6	1391.3 ± 1.6	1355.7 ± 1.6
x1 = 0.8999	1133.5 ± 0.5	1123.12 ± 0.49	1112.74 ± 0.48	1102.3 ± 0.48	1474.2 ± 1.6	1438.1 ± 1.6	1401.9 ± 1.6	1366.2 ± 1.6
x1 = 1	1169.93 ± 0.37	1159.33 ± 0.36	1148.69 ± 0.35	1138.01 ± 0.34	1495.4 ± 1.6	1458.8 ± 1.6	1422.5 ± 1.6	1386.5 ± 1.6

O=Cc1ccco1 [2-furaldehyde] + CCO
Conditions	mass density, 283.15 K [kg/m3]	mass density, 293.15 K [kg/m3]	mass density, 303.15 K [kg/m3]	mass density, 313.15 K [kg/m3]	speed of sound, 283.15 K [m/s]	speed of sound, 293.15 K [m/s]	speed of sound, 303.15 K [m/s]	speed of sound, 313.15 K [m/s]
x1 = 0.0486	825.34 ± 0.59	816.58 ± 0.59	807.7 ± 0.58	798.67 ± 0.58	1221.8 ± 1.7	1187.2 ± 1.7	1152.6 ± 1.6	1118.5 ± 1.6
x1 = 0.0995	852.29 ± 0.57	843.29 ± 0.56	834.16 ± 0.56	824.83 ± 0.55	1245.2 ± 1.6	1210.4 ± 1.6	1175.6 ± 1.6	1141.2 ± 1.6
x1 = 0.15	877.44 ± 0.54	868.21 ± 0.54	858.83 ± 0.53	849.37 ± 0.53	1265.6 ± 1.6	1230.5 ± 1.6	1195.7 ± 1.6	1161.2 ± 1.6
x1 = 0.2	901.29 ± 0.53	891.88 ± 0.52	882.29 ± 0.52	872.64 ± 0.52	1284.6 ± 1.6	1249.7 ± 1.6	1214.8 ± 1.6	1180.2 ± 1.6
x1 = 0.25	924.5 ± 0.51	914.91 ± 0.51	905.24 ± 0.51	895.34 ± 0.51	1302.7 ± 1.6	1267.7 ± 1.6	1232.8 ± 1.6	1198.2 ± 1.6
x1 = 0.3001	946.91 ± 0.47	937.18 ± 0.47	927.3 ± 0.47	917.42 ± 0.47	1320.2 ± 1.6	1285.2 ± 1.6	1250.3 ± 1.6	1215.7 ± 1.6
x1 = 0.4501	1007.43 ± 0.44	997.35 ± 0.43	987.26 ± 0.43	977.03 ± 0.43	1367.1 ± 1.6	1331.9 ± 1.6	1296.9 ± 1.6	1262.3 ± 1.6
x1 = 0.6501	1076.56 ± 0.45	1066.08 ± 0.44	1055.65 ± 0.44	1045.07 ± 0.43	1421.3 ± 1.6	1385.7 ± 1.6	1350.4 ± 1.6	1315.4 ± 1.6
x1 = 0.7007	1091.79 ± 0.42	1081.25 ± 0.42	1070.76 ± 0.41	1060.22 ± 0.4	1433.5 ± 1.6	1398 ± 1.6	1362.5 ± 1.6	1327.2 ± 1.6
x1 = 0.7498	1105.77 ± 0.42	1095.26 ± 0.42	1084.63 ± 0.41	1074.13 ± 0.4	1444.7 ± 1.6	1409.1 ± 1.6	1373.4 ± 1.6	1338 ± 1.6
x1 = 0.8003	1119.65 ± 0.42	1109.04 ± 0.42	1098.47 ± 0.41	1087.81 ± 0.4	1455.7 ± 1.6	1419.9 ± 1.6	1384.2 ± 1.6	1348.8 ± 1.6
x1 = 0.8503	1132.81 ± 0.43	1122.12 ± 0.42	1111.5 ± 0.41	1100.88 ± 0.4	1466.4 ± 1.6	1430.6 ± 1.6	1394.6 ± 1.6	1358.8 ± 1.6
x1 = 0.9004	1145.37 ± 0.43	1134.68 ± 0.42	1124.08 ± 0.42	1113.48 ± 0.41	1476.6 ± 1.6	1440.3 ± 1.6	1404.2 ± 1.6	1368.5 ± 1.6
x1 = 0.9498	1157.85 ± 0.44	1147.23 ± 0.43	1136.49 ± 0.42	1125.72 ± 0.41	1486.3 ± 1.6	1450.1 ± 1.6	1413.8 ± 1.6	1377.8 ± 1.6
x1 = 1	1169.93 ± 0.37	1159.33 ± 0.36	1148.69 ± 0.35	1138.01 ± 0.34	1495.4 ± 1.6	1458.8 ± 1.6	1422.5 ± 1.6	1386.5 ± 1.6
